Source: PMC3150631 (Nature, 2011)

Target: T1, UCP2 (mouse mitochondrial uncoupling protein 2) (Mus musculus, UniProt P70406)
T1 sequence (P70406 14-309): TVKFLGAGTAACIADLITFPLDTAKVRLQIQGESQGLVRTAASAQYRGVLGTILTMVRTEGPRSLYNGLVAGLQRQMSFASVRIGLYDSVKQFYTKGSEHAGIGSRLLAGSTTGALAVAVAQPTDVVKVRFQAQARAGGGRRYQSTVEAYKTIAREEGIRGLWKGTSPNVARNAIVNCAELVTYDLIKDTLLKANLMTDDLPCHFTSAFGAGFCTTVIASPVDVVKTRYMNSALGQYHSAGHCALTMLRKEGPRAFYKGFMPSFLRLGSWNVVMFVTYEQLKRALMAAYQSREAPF
Assay: proton translocation in liposomes
Assay type: biochemical
Conditions: fatty-acid activated; inhibitor

Nc1nc2c(ncn2[C@@H]2O[C@H](COP(=O)(O)OP(=O)(O)O)[C@@H](O)[C@H]2O)c(=O)[nH]1 [GDP]
proton translocation in liposomes: it showed fatty-acid activated and GDP-inhibited proton translocation activity
